Assay results reported in EPA's ToxRefDB 2.

How the values were obtained:
dog [1] = conditions: Subchronic oral toxicity in nonrodent, beagle, Gavage/Intubation, dose end: 6 week, group: systemic
rat [2] = conditions: Subchronic oral toxicity in rodents, sprague dawley, Gavage/Intubation, dose end: 6 week, group: systemic
rat [3] = conditions: Combined chronic toxicity/carcinogenicity; fischer; Oral; Feed; dose end: 2 year; group: systemic; systemic / pathology microscopic / liver / degeneration + systemic / pathology microscopic / liver / hyperplasia + systemic / pathology …
rat [4] = conditions: Subchronic oral toxicity in rodents, fischer, Feed, dose end: 13 week, group: systemic
mouse [5] = conditions: Subchronic oral toxicity in rodents, b6c3f1, Feed, dose end: 13 week, group: systemic, systemic / in life observation / body weight / body weight
mouse [6] = conditions: Carcinogenicity, b6c3f1, Oral, Feed, dose end: 2 year, group: systemic
mouse [7] = conditions: Combined chronic toxicity/carcinogenicity; other; Oral; Gavage/Intubation; dose end: 10 month; group: systemic; systemic / pathology microscopic / liver / neoplastic nodule + systemic / pathology microscopic / liver / dysplasia
rat [8] = conditions: Chronic toxicity, sprague dawley, Oral, Gavage/Intubation, dose end: 39 week, group: systemic
dog [9] = conditions: Chronic toxicity, beagle, Oral, Capsule, dose end: 40 week, group: systemic
rat [10] = conditions: Sub-acute repeat dose toxicity, wistar, Oral, Gavage/Intubation, dose end: 28 day
rat [11] = conditions: Sub-acute repeat dose toxicity, other, Oral, Gavage/Intubation, dose end: 30 day
rat [12] = conditions: Prenatal developmental toxicity study, wistar, Oral, Gavage/Intubation, dose end: 16 GD
dog [13] = conditions: Subchronic oral toxicity in nonrodent, beagle, Capsule, dose end: 90 day, group: systemic
rat [14] = conditions: Combined chronic toxicity/carcinogenicity, wistar, Oral, Feed, dose end: 104 week, group: systemic
rat [15] = conditions: Prenatal developmental toxicity study, wistar, Oral, Gavage/Intubation, dose end: 16 GD; remark: listed apart in the source
rabbit = conditions: Prenatal developmental toxicity study; new zealand white; Oral; Gavage/Intubation; dose end: 19 GD; group: maternal; reproductive / reproductive performance / aborted / aborted + reproductive / reproductive performance / resorptions / resorptions + systemic…
hamster [16] = conditions: Subchronic oral toxicity in rodents, golden syrian, Feed, dose end: 13 week, group: systemic
hamster [17] = conditions: Subchronic oral toxicity in rodents, golden syrian, Feed, dose end: 90 day, group: systemic, systemic / clinical chemistry / cholesterol / cholesterol + systemic / clinical chemistry / creatinine / creatinine + systemic / clinical …
rat [18] = conditions: Subchronic oral toxicity in rodents, wistar, Feed, dose end: 90 day, group: systemic, systemic / hematology / erythrocyte (rbc) count differential / erythrocyte (rbc) + systemic / hematology / hematocrit (hct) / hematocrit (…
hamster [19] = conditions: Carcinogenicity, golden syrian, Oral, Feed, dose end: 80 week, group: systemic
dog [20] = conditions: Chronic toxicity, beagle, Oral, Capsule, dose end: 52 week, group: systemic
[21] = systemic / in life observation / clinical signs / feces, discoloration + systemic / in life observation / clinical signs / salivation + …
[22] = systemic / in life observation / clinical signs / salivation + systemic / organ weight / epididymis / absolute + systemic / organ weight / …
[23] = systemic / clinical chemistry / bilirubin / total bilirubin + systemic / hematology / neutrophils / neutrophils + systemic / in life …
[24] = systemic / in life observation / body weight / body weight + systemic / in life observation / body weight / body weight gain + systemic / in…
[25] = systemic / in life observation / body weight / body weight
[26] = systemic / in life observation / body weight / body weight + systemic / in life observation / food consumption / food consumption + systemic…
[27] = systemic / pathology microscopic / liver / necrosis
[28] = systemic / pathology microscopic / liver / necrosis + systemic / pathology microscopic / liver / adenoma/carcinoma combined + systemic / …
[29] = systemic / organ weight / [other] / absolute + systemic / organ weight / [other] / relative to body weight + systemic / pathology gross / …
[30] = systemic / in life observation / body weight / body weight gain + systemic / pathology gross / liver / fat vacuolation + systemic / …
[31] = systemic / pathology microscopic / blood / [other] + systemic / clinical chemistry / alanine aminotransferase (alt/sgpt) / alanine …
[32] = group: maternal, reproductive / reproductive performance / estrous cycle / abnormal
[33] = group: systemic, systemic / clinical chemistry / albumin / albumin + systemic / clinical chemistry / cholesterol / cholesterol + systemic / clinical …
[34] = group: systemic, systemic / clinical chemistry / cholesterol / cholesterol + systemic / clinical chemistry / thyroid stimulating hormone (thyrotropin) (tsh…
[35] = group: maternal, reproductive / reproductive performance / estrous cycle / abnormal + reproductive / reproductive performance / estrous cycle / length
[36] = group: maternal, reproductive / reproductive performance / estrous cycle / length
[37] = group: systemic, systemic / clinical chemistry / follicle stimulating hormone (fsh) / follicle stimulating hormone (fsh) + systemic / in life observation / …
[38] = group: systemic, systemic / organ weight / adrenal gland / relative to body weight + systemic / organ weight / ovary / relative to body weight + systemic / …
[39] = group: developmental, developmental / developmental malformation / bone / incomplete ossification + developmental / developmental malformation / bone / [other] + …
[40] = group: maternal, systemic / in life observation / body weight / body weight + systemic / in life observation / food consumption / food consumption + systemic…
[41] = systemic / clinical chemistry / aminopyrine-n-demethylase / aminopyrine-n-demethylase
[42] = systemic / in life observation / body weight / body weight gain + systemic / in life observation / food consumption / food consumption + …
[43] = group: developmental, developmental / developmental malformation / bone / bipartite ossification + developmental / developmental malformation / bone / delayed …
[44] = group: maternal, systemic / in life observation / food consumption / food consumption + systemic / in life observation / mortality / mortality + reproductive…
[45] = systemic / in life observation / body weight / body weight gain + systemic / organ weight / liver / absolute + systemic / clinical chemistry…
[46] = systemic / pathology microscopic / liver / adenoma + systemic / pathology microscopic / liver / hemangioma + systemic / pathology …
[47] = systemic / pathology microscopic / ovary / sex cord stromal tumor, benign
[48] = systemic / clinical chemistry / alanine aminotransferase (alt/sgpt) / alanine aminotransferase (alt/sgpt) + systemic / organ weight / liver…

N#Cc1ccc(N(CC(N)=O)CC(F)(F)F)cc1C(F)(F)F
LOAEL (dog [1]; [21]): > 3 mg/kg/day | NOAEL (dog [1]; [21]): ≥ 3 mg/kg/day | LEL (dog [1]; [22]): 0.3 mg/kg/day | NEL (dog [1]; [22]): < 0.3 mg/kg/day | LOAEL (rat [2]; [23]): > 30 mg/kg/day | NOAEL (rat [2]; [23]): ≥ 30 mg/kg/day | LEL (rat [2]; [24]): 1 mg/kg/day | NEL (rat [2]; [24]): < 1 mg/kg/day

O=C(O)C1C(C(=O)O)C2(Cl)C(Cl)=C(Cl)C1(Cl)C2(Cl)Cl (stereo not drawn) [Chlorendic acid]
LEL (rat [3]): 27 mg/kg/day | LOAEL (rat [3]): 27 mg/kg/day | NEL (rat [3]): < 27 mg/kg/day | NOAEL (rat [3]): < 27 mg/kg/day | LEL (rat [4]; [25]): 63 mg/kg/day | LOAEL (rat [4]; [25]): 63 mg/kg/day | NEL (rat [4]; [26]): 31 mg/kg/day | NOAEL (rat [4]; [26]): 31 mg/kg/day | LEL (mouse [5]): 188 mg/kg/day | LOAEL (mouse [5]): 188 mg/kg/day | NEL (mouse [5]): < 188 mg/kg/day | NOAEL (mouse [5]): < 188 mg/kg/day | LOAEL (mouse [6]; [27]): 89 mg/kg/day | NOAEL (mouse [6]; [27]): < 89 mg/kg/day | LEL (mouse [6]; [28]): 89 mg/kg/day | NEL (mouse [6]; [28]): < 89 mg/kg/day

C[C@]12CCC(=O)C=C1CC[C@@H]1[C@@H]2CC[C@@]2(C)[C@H]1CC[C@]2(C)O [17-Methyltestosterone]
LEL (mouse [7]): 5 mg/kg/day | LOAEL (mouse [7]): > 5 mg/kg/day | NEL (mouse [7]): < 5 mg/kg/day | NOAEL (mouse [7]): ≥ 5 mg/kg/day | LOAEL (rat [8]; [29]): > 40 mg/kg/day | NEL (rat [8]; [29]): 2 mg/kg/day | NOAEL (rat [8]; [29]): ≥ 40 mg/kg/day | LEL (rat [8]; systemic / pathology gross / testes / reduced size + systemic / in life observation / body weight / body weight gain + systemic / in life …): 10 mg/kg/day | LOAEL (dog [9]; [30]): > 6 mg/kg/day | NOAEL (dog [9]; [30]): ≥ 6 mg/kg/day | LEL (dog [9]; [31]): 2 mg/kg/day | NEL (dog [9]; [31]): < 2 mg/kg/day | LEL (rat [10]; [32]): 100 mg/kg/day | LOAEL (rat [10]; [32]): > 600 mg/kg/day | NEL (rat [10]; [32]): 10 mg/kg/day | NOAEL (rat [10]; [32]): ≥ 600 mg/kg/day | LOAEL (rat [10]; [33]): > 200 mg/kg/day | NOAEL (rat [10]; [33]): ≥ 200 mg/kg/day | LEL (rat [10]; [34]): 10 mg/kg/day | NEL (rat [10]; [34]): < 10 mg/kg/day | LOAEL (rat [11]; [35]): > 80 mg/kg/day | NOAEL (rat [11]; [35]): ≥ 80 mg/kg/day | LEL (rat [11]; [36]): 5 mg/kg/day | NEL (rat [11]; [36]): < 5 mg/kg/day | LOAEL (rat [11]; [37]): > 80 mg/kg/day | NOAEL (rat [11]; [37]): ≥ 80 mg/kg/day | LEL (rat [11]; [38]): 5 mg/kg/day | NEL (rat [11]; [38]): < 5 mg/kg/day

CCO/N=C(\CC)C1=C(O)CC(c2c(C)cc(C)cc2C)CC1=O (stereo not drawn) [Tralkoxydim]
LOAEL (rat [12]; group: developmental, developmental / developmental malformation / bone / incomplete ossification): 30 mg/kg/day | LEL (rat [12]; group: developmental, developmental / developmental malformation / bone / incomplete ossification + developmental / developmental malformation / bone / [other]): 30 mg/kg/day | NEL (rat [12]; [39]): 3 mg/kg/day | NOAEL (rat [12]; [39]): 3 mg/kg/day | LEL (rat [12]; [40]): 200 mg/kg/day | LOAEL (rat [12]; [40]): 200 mg/kg/day | LEL (dog [13]; [41]): 0.5 mg/kg/day | LOAEL (dog [13]; [41]): 5 mg/kg/day | NEL (dog [13]; [41]): < 0.5 mg/kg/day | NOAEL (dog [13]; systemic / clinical chemistry / aminopyrine-n-demethylase / aminopyrine-n-demethylase + systemic / clinical chemistry / albumin / albumin + …): 0.5 mg/kg/day | LOAEL (rat [14]; [42]): 118 mg/kg/day | NEL (rat [14]; [42]): 2.3 mg/kg/day | NOAEL (rat [14]; [42]): 23.1 mg/kg/day | LEL (rat [14]; systemic / pathology microscopic / pituitary gland / adenoma): 23.1 mg/kg/day | LOAEL (rat [15]; [43]): 30 mg/kg/day | NEL (rat [15]; [43]): 1 mg/kg/day | NOAEL (rat [15]; [43]): 3 mg/kg/day | LEL (rat [15]; group: developmental, developmental / developmental malformation / bone / delayed ossification): 3 mg/kg/day | LOAEL (rat [15]; group: maternal, systemic / in life observation / food consumption / food consumption + systemic / in life observation / mortality / mortality): 200 mg/kg/day | LEL (rat [15]; [44]): 200 mg/kg/day | NEL (rat [15]; [44]): 30 mg/kg/day | NOAEL (rat [15]; [44]): 30 mg/kg/day | LEL (rabbit): 100 mg/kg/day | LOAEL (rabbit): 100 mg/kg/day | NEL (rabbit): 20 mg/kg/day | NOAEL (rabbit): 20 mg/kg/day | LOAEL (hamster [16]; systemic / in life observation / body weight / body weight gain + systemic / organ weight / liver / absolute): 650 mg/kg/day | NEL (hamster [16]; [45]): 122 mg/kg/day | NOAEL (hamster [16]; [45]): 328 mg/kg/day | LEL (hamster [16]; systemic / pathology microscopic / liver / proliferation): 328 mg/kg/day | LEL (hamster [17]): 337 mg/kg/day | LOAEL (hamster [17]): 337 mg/kg/day | NEL (hamster [17]): 41 mg/kg/day | NOAEL (hamster [17]): 41 mg/kg/day | LEL (rat [18]): 205 mg/kg/day | LOAEL (rat [18]): 205 mg/kg/day | NEL (rat [18]): 20.5 mg/kg/day | NOAEL (rat [18]): 20.5 mg/kg/day | LOAEL (hamster [19]; [46]): > 672 mg/kg/day | NOAEL (hamster [19]; [46]): ≥ 672 mg/kg/day | LEL (hamster [19]; [47]): 27.8 mg/kg/day | NEL (hamster [19]; [47]): < 27.8 mg/kg/day | LEL (dog [20]; [48]): 5 mg/kg/day | LOAEL (dog [20]; [48]): 5 mg/kg/day | NOAEL (dog [20]; [48]): 0.5 mg/kg/day | NEL (dog [20]; systemic / clinical chemistry / cholesterol / cholesterol + systemic / clinical chemistry / protein / protein + systemic / clinical …): 0.5 mg/kg/day
